The values that follow come from PubChem BioAssay AID179 (DTP/NCI, 2004).

This assay relates to CEM cells HIV-1 protection, formazan growth assay. Nature of the assay: NCI AIDS Antiviral Assay. Particulars: for IC50: measured here: growth of uninfected CEM cells. A digest of the protocol: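 Human CEM cells, uninfected and HIV-1-infected, exposed to five drug concentrations; growth measured by soluble formazan assay and scored as percent protection from infection, with protecting compounds retested.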

Calls of active or inactive are those of the source.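 Rule for the calls: active = compounds giving half or more protection of infected cells from virus-caused growth loss, again on retest; inactive = the rest.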

One may read the EC50 as the concentration at which the effect is half-maximal. The term IC50 denotes the point on the concentration scale where inhibition reaches its midpoint. High values mean a need for much substance, low ones inhibition by little substance. Consider `OC1CC[C@H](Cl)C2=C1[C@@]13C[C@]14OCCC3OC2[C@@H]4Cl` (some centres not stated), for which the EC50 is above 427 µM and the IC50 is above 427 µM. `c1cc2nnnn2nc1N1CCCC1`: the EC50 was above 200 µM and the IC50 is above 200 µM. As for `C(=C\c1csnn1)/c1cccnc1`, the EC50 is above 316 µM and the half-maximal inhibitory concentration (IC50) was 182 µM.

For the molecule `CC(C)Oc1nc(N2CCNCC2)nc2c1CCCC2`, the result was inactive. On to `COC(=O)c1ccc(N2CCOS(=O)OCC2)cc1OC(=O)c1ccccc1`, for which the EC50 was above 200 µM and the IC50 was 33.1 µM.

For `NCC1=NCCN1`, the EC50 was above 200 µM and the IC50 is above 200 µM. On to `CC(=O)Nc1ccc(-c2nnc(SCC(=O)Nc3cccc(C)c3)o2)cc1`, for which the EC50 was above 67.6 µM and the IC50 was found to be 11.7 µM. In the same order, the values of `COC(=O)C1=C(C)C(=O)[C@H]2C(C(=O)OC)CCCC[C@@H]12` (some centres not stated) are above 200 µM and 129 µM. As for `O=S1OCCO1`, the EC50 was above 2290 µM and the concentration for half-maximal inhibition (IC50) is above 2290 µM. With `Cc1cc(=O)[nH]c(CNC(=O)Cc2ccccc2)n1`, the EC50 is above 977 µM and the IC50 is above 977 µM. `COC(=O)C(C)(Cc1ccc2c(c1)nnn2C(C)=O)NC(C)=O` (configuration not stated): the EC50 is above 200 µM and the IC50 was above 200 µM. As for `c1ccc(C2=C(c3ccccc3)CSSC2)cc1`, the EC50 is above 69.2 µM and the IC50 is above 69.2 µM. With `COC(=O)CNC(=O)CCSc1nnc(COc2ccc(Cl)cc2)n1-c1ccccc1`, the EC50 was above 200 µM and the half-inhibitory concentration (IC50) was determined as 33.9 µM. On the same counts, the results for `CC1C(=O)c2c(O)cc(O)cc2O[C@@H]1C` (some centres not stated) are above 200 µM and above 200 µM. Take `O=C(/C=C/c1ccccc1)CCC1C(=O)NC(=S)NC1=O`: the EC50 was above 85.1 µM and the half-inhibitory concentration (IC50) was above 85.1 µM. `Cn1c(=O)n2c(-c3ccccc3)c(-c3ccccc3)n2c1=O`: the EC50 is above 200 µM and the IC50 worked out at 102 µM. For `O=C(O)c1c(Cl)c(Cl)c(Cl)c(Cl)c1-c1c2ccc(=O)cc-2oc2cc(O)ccc12`, the concentration giving a half-maximal response (EC50) came to 6.46 µM and the concentration for half-maximal inhibition (IC50) stood at 29.5 µM. In the same order, the values of `COc1cc2c(cc1OCCN1C(=O)c3cccc4cccc(c34)C1=O)N=C[C@@H]1CCCN1C2=O` are above 41.7 µM and 5.5 µM. In the same order, the values of `O=C(O)c1cc(C(=O)Nc2ccc(C3=NCCN3)cc2)c(C(=O)O)cc1C(=O)Nc1ccc(C2=NCCN2)cc1` are above 200 µM and above 200 µM. In the same order, the values of `CCCCCCCCCCCCCCCCOCC(COP(=O)([O-])OCC[n+]1ccc(N(C)C)cc1)OCC` (configuration not stated) are above 200 µM and 66.1 µM. `CCC[CH2][Sn]([CH2]CCC)([O]C(=O)C(N)CSC)[O]C(=O)C(N)CSC` (configuration not stated): the EC50 is above 18.6 µM and the half-maximal inhibitory concentration (IC50) is 0.129 µM.

As to `COC(=O)/C(C#N)=C(\Nc1ccccc1)N1CCOCC1`, the EC50 is above 200 µM and the IC50 is above 200 µM. Take `C#Cc1cccc(N2C(=O)c3c(c(-c4ccccc4)c(-c4ccc(Cc5ccc(-c6c(-c7ccccc7)c7c(c(-c8ccccc8)c6-c6ccccc6)C(=O)N(c6cccc(C#C)c6)C7=O)cc5)cc4)c(-c4ccccc4)c3-c3ccccc3)C2=O)c1`: the EC50 was above 23.4 µM and the concentration for half-maximal inhibition (IC50) was above 23.4 µM. For `NC1=Nc2ncccc2C(=O)NN1`, the EC50 is above 200 µM and the IC50 came out at 117 µM. On the same counts, the results for `Cc1cc(NS(=O)(=O)c2ccc(NC(=O)c3ccc4[nH]c5ccccc5c(=O)c4c3)cc2)no1` are above 200 µM and 93.3 µM.

Turning to `COC1(OC)N=C(N)C2(C#N)C(C)CC(=O)N(N(C)C)C12C#N` (configuration not stated), the EC50 is above 200 µM and the IC50 is above 200 µM. Regarding `CC1C(=O)c2cc3c(cc2CCN(C)Cc2c1ccc1c2OCO1)OCO3` (configuration not stated), the EC50 was above 70.8 µM and the IC50 was above 70.8 µM. For `CN(CCCNC(=O)c1cc(-c2ccccc2)nc2ccccc12)CCCNC(=O)c1cc(-c2ccccc2)nc2ccccc12`, the EC50 is above 20 µM and the IC50 turned out to be 3.39 µM. For the molecule `O=C(CC1C(=O)Nc2ccccc2S1=O)Nc1ccc(Cl)cc1` (configuration not stated), the result was inactive. In the case of `S=P1(Oc2ccccc2)OCCO1`, the EC50 was above 617 µM and the half-inhibitory concentration (IC50) is above 617 µM. For the molecule `CCOC(=O)C1C(C(=O)OCC)N2c3ccccc3-c3cccnc3[C@@H]2[C@H]1C(=O)OCC` (some centres not stated), the EC50 was above 100 µM and the IC50 is 95.5 µM. On the same counts, the results for `Cc1nnc2nc(N)[nH]n2c1=O` are above 200 µM and above 200 µM. In the case of `C(=C\c1c[nH]c2ccccc12)/c1ccc2ccccc2n1`, the EC50 is 0.0631 µM and the concentration for half-maximal inhibition (IC50) was 16.6 µM.

As for `CCN(CCO)c1ccc(N=O)cc1`, the EC50 was above 200 µM and the half-maximal inhibitory concentration (IC50) was determined as 11.5 µM. On the same counts, the results for `CC(C)(C)n1c(=O)n(C(=O)C(Cl)(Cl)Cl)n(C(=O)C(Cl)(Cl)Cl)c1=O` are above 200 µM and above 200 µM. In the case of `CN(C)CC1CCCCC(CN(C)C)C1=O` (configuration not stated), the outcome was inactive.

As for `N#CCC[P+](c1ccccc1)(c1ccccc1)c1ccccc1`, the EC50 is above 200 µM and the IC50 was determined as 55 µM. In the same order, the values of `N#Cc1cc2c(cc1Cl)Sc1nccn1S2(=O)=O` are above 200 µM and 0.851 µM. Turning to `COc1cccc(CCNC(=O)Cc2ccccc2CCO)c1`, the EC50 is above 200 µM and the IC50 is above 200 µM.

In the case of `O=C(CCc1nnc2s/c(=C\c3ccc(Cl)cc3Cl)c(=O)n12)Nc1cc(Cl)c(Cl)cc1Cl`, the EC50 is above 13.2 µM and the IC50 is above 13.2 µM.

For the molecule `Cc1c(O)c2ccccc2n(C)c1=O`, the EC50 is above 200 µM and the half-maximal inhibitory concentration (IC50) is above 200 µM. As to `O=C1c2ccccc2C(=O)C1C(c1ccc(F)cc1)C1C(=O)c2ccccc2C1=O`, the EC50 was above 46.8 µM and the half-maximal inhibitory concentration (IC50) stood at 36.3 µM. Take `O=c1oc2cc(O)ccc2c(O)c1C(c1cccnc1)c1c(O)c2ccc(O)cc2oc1=O`: the outcome was inactive. With `Cc1cc(=O)[nH]c(NNC(C#N)c2ccc([N+](=O)[O-])cc2)n1` (configuration not stated), the EC50 is above 63.1 µM and the half-maximal inhibitory concentration (IC50) is above 63.1 µM. As to `C(=C(\C[P+](c1ccccc1)(c1ccccc1)c1ccccc1)c1ccccc1)/c1ccccc1`, the EC50 was above 200 µM and the half-inhibitory concentration (IC50) was 1 µM.

For the molecule `c1cc2c(cc1NC1=NCCO1)CCCC2`, the EC50 was above 200 µM and the IC50 worked out at 1.55 µM.

With `Cc1cc(S(=O)(=O)Nc2n[nH]c(Nc3ccc(Cl)cc3)n2)c(S)cc1Cl`, the EC50 is above 100 µM and the IC50 was above 100 µM.

As for `CC(NCCNC(C)c1cccnc1)c1cccnc1` (configuration not stated), the EC50 is above 200 µM and the concentration for half-maximal inhibition (IC50) was above 200 µM. Regarding `COc1ccc2c(=O)c(-c3ccc(OC)c(OC)c3)c(C)oc2c1`, the EC50 was above 200 µM and the IC50 is above 200 µM. With `CCOC(=O)c1nnsc1NC(=O)NN`, the EC50 was above 200 µM and the IC50 is above 200 µM.

`[Cl-].[Rh+3].c1ccc(-c2ccnc3c2ccc2c(-c4ccccc4)ccnc23)cc1.c1ccc(-c2ccnc3c2ccc2c(-c4ccccc4)ccnc23)cc1.c1ccc(-c2ccnc3c2ccc2c(-c4ccccc4)ccnc23)cc1`: the EC50 is above 11 µM and the IC50 was 7.08 µM. Regarding `N=C1N=C(N)c2cc3c(cc21)SCCSCCCSCCS3`, the EC50 is above 50.1 µM and the half-maximal inhibitory concentration (IC50) was 8.51 µM. Consider `COc1ccc(NC(=S)N=Nc2c(O)[nH]c3ccccc23)cc1`, for which the EC50 was above 200 µM.

As to `CC12OOC(c3ccccc31)c1c2ccc2ccccc12` (configuration not stated), the outcome was inactive. As to `O=C1c2sccc2-c2cccc3cccc1c23`, the EC50 is above 63.1 µM and the half-maximal inhibitory concentration (IC50) came out at 30.9 µM. On the same counts, the results for `CC(NC(=O)OC(C)(C)C)C(=O)NC(Cc1ccccc1)C(=O)NCC(=O)Oc1c(Cl)c(Cl)c(Cl)c(Cl)c1Cl` (configuration not stated) are above 200 µM and 4.27 µM. `OC1[C@@H]2[C@@H](O)CCCN2C[C@@H](O)[C@H]1O` (some centres not stated): the EC50 is above 200 µM and the IC50 is above 200 µM. Take `Oc1[nH]c2ccccc2c1N=NC(=S)N1CCCC1`: the EC50 was above 200 µM and the IC50 is 1.55 µM.

On to `O=C(O)c1nc(-c2ccc(Cl)c(Cl)c2)nc2ccc(Cl)cc12`, for which the result was inactive. Turning to `CC(C)(c1ccccc1)c1ccc(Oc2ccc3c(c2)-c2nc-3nc3[nH]c(nc4nc(nc5[nH]c(n2)c2ccc(Oc6ccc(C(C)(C)c7ccccc7)cc6)cc52)-c2cc(Oc5ccc(C(C)(C)c6ccccc6)cc5)ccc2-4)c2ccc(Oc4ccc(C(C)(C)c5ccccc5)cc4)cc32)cc1`, the EC50 is above 2.63 µM and the IC50 was above 2.63 µM.

For `CC(C)c1c(O[Si](C(C)C)(C(C)C)C(C)C)c2c3c(ccc4c3c1OC4(C)C)C(C)CC2` (configuration not stated), the EC50 is above 200 µM and the IC50 is above 200 µM. Regarding `CCN(CC)CCN1C(=O)c2cccc3cccc(c23)C1=O`, the EC50 is above 200 µM and the IC50 was found to be 9.77 µM. On the same counts, the results for `O=C1c2ccccc2NC2(C(=O)Nc3ccccc32)N1N1CCOCC1` (configuration not stated) are above 200 µM and above 200 µM. In the same order, the values of `OC(c1ccccc1)(c1ccccc1)C1CC1c1ccncc1` (configuration not stated) are above 200 µM and 117 µM. For `C1CN1c1nc(N2CC2)nc(N2CC2)n1`, the EC50 is above 91.2 µM and the concentration for half-maximal inhibition (IC50) stood at 1.05 µM. On the same counts, the results for `OC1C2[C@@H](O)CCN2CC[C@H]1O` (some centres not stated) are above 759 µM and above 759 µM. In the same order, the values of `CC(=O)OC1CC2C(CCC3(C)C(OC(C)=O)CCC23)c2c(OS(=O)(=O)c3ccccc3)ccc(C)c21` (configuration not stated) are above 100 µM and above 100 µM. For `CCOC(=O)c1cn(Cc2ccccc2)c(=O)n1Cc1ccccc1`, the EC50 is above 107 µM and the concentration for half-maximal inhibition (IC50) was found to be 60.3 µM.

`Clc1nnc(-c2ccccc2)s1`: the EC50 is above 200 µM and the IC50 came to 87.1 µM. On the same counts, the results for `Cc1ccc(S(=O)(=O)NC(=O)NCCCSSCCCNC(=O)NS(=O)(=O)c2ccc(C)cc2)cc1` are above 200 µM and above 200 µM. In the same order, the values of `Cc1nc(-c2ccc(Cl)cc2)cn2c1nc1ccccc12` are 61.7 µM and 191 µM. For the molecule `CC1=NN(c2ccccc2)C(=O)CC1`, the EC50 was above 1320 µM and the IC50 is above 1320 µM.
